Source: patent US12479850B2, “Compound having Axl and c-Met kinase inhibitory activity, preparation thereof and application thereof” (Shanghai Institute of Materia Medica, Chinese Academy of …, priority 2019, dated 2025)

How the values were obtained:
[1] = biological target: c-Met kinase domain recombinant protein (Homo sapiens, UniProt P08581); assay: ELISA kinase activity assay, c-Met
[2] = biological target: T1, Axl kinase domain recombinant protein (Homo sapiens, UniProt P30530); assay: ELISA kinase activity assay, Axl
T1 sequence (P30530 536-807 limits assumed): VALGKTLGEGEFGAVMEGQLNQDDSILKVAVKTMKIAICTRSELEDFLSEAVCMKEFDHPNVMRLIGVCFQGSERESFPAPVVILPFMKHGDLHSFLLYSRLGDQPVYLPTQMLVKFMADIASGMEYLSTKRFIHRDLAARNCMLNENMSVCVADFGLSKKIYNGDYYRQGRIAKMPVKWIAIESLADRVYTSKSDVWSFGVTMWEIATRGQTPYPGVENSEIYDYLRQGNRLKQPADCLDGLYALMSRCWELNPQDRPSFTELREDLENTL

Chain of c-Met kinase domain recombinant protein (P08581 1078-1345 limits assumed): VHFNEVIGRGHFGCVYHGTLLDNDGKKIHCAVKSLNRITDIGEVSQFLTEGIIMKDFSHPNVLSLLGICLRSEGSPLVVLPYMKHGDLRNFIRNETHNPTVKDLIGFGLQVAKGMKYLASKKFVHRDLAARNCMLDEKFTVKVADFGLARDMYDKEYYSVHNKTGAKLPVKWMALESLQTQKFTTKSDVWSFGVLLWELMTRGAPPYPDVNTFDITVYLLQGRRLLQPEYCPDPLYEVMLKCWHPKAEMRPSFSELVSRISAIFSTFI

SMILES | IC50 [1] [nM] | IC50 [2] [nM]
COc1ccc(-c2cnc(N)c(-c3ccc(NC(=O)c4cn(C(C)C)c(=O)n(-c5ccc(F)cc5)c4=O)cc3F)c2)cc1OC [No. 37, N-(4-(2-amino-5-(3,4-dimethoxyphenyl)pyridin-3-yl)-3-fluorophenyl)-3-(4-fluorophenyl)-1-isopropyl-2,4-dioxo-1,2,3,4-tetrahydropyrimidin-5-carboxamide] | 10 to 100 | < 10
CC(C)n1cc(C(=O)Nc2ccc(Oc3ccnc(-c4cnn(C)c4)c3)c(F)c2)c(=O)n(-c2ccccc2)c1=O [No. 13, N-(3-fluoro-4-((2-(1-methyl-1H-pyrazol-4-yl)pyridin-4-yl)oxy)phenyl)-1-isopropyl-2,4-dioxo-3-phenyl-1,2,3,4-tetrahydropyrimidin-5-carboxamide] | 10 to 100 | 10 to 100
COc1cc(-c2cnc(N)c(-c3ccc(NC(=O)c4cn(C(C)C)c(=O)n(-c5ccc(F)cc5)c4=O)cc3F)c2)ccc1OC[C@H]1COCCO1 [No. 39, (R)—N-(4-(5-(4-((1,4-dioxan-2-yl)methoxy)-3-methoxyphenyl)-2-aminopyridin-3-yl)-3-fluorophenyl)-3-(4-fluorophenyl)-1-isopropyl-2,4-dioxo-1,2,3,4-tetrahydropyrimidin-5-carboxamide] | 10 to 100 | < 10
CC(C)n1cc(C(=O)Nc2ccc(Oc3ccnc4[nH]cc(Br)c34)c(F)c2)c(=O)n(-c2ccc(F)cc2)c1=O [No. 42] | < 10 | < 10
CC(C)n1cc(C(=O)Nc2ccc(-c3cc(-c4cnn(C)c4)cnc3N)c(F)c2)c(=O)n(-c2ccc(F)cc2)c1=O [No. 38, N-(4-(2-amino-5-(1-methyl-1H-pyrazol-4-yl)pyridin-3-yl)-3-fluorophenyl)-3-(4-fluorophenyl)-1-isopropyl-2,4-dioxo-1,2,3,4-tetrahydropyrimidin-5-carboxamide] | < 10 | < 10
CC(C)n1cc(C(=O)Nc2ccc(Oc3ccnc(-c4cnn(C)c4)c3)c(F)c2)c(=O)n(-c2ccccc2F)c1=O [No. 18, N-(3-fluoro-4-((2-(1-methyl-1H-pyrazol-4-yl)pyridin-4-yl)oxy)phenyl)-3-(2-fluorophenyl)-1-isopropyl-2,4-dioxo-1,2,3,4-tetrahydropyrimidin-5-carboxamide] | 10 to 100 | < 10
CC(C)n1nc(C(=O)Nc2ccc(Oc3ccnc(-c4cnn(C)c4)c3)c(F)c2)c(=O)n(-c2ccc(F)cc2)c1=O [No. 24, N-(3-fluoro-4-((2-(1-methyl-1H-pyrazol-4-yl)pyridin-4-yl)oxy)phenyl)-4-(4-fluorophenyl)-2-isopropyl-3,5-dioxo-2,3,4,5-tetrahydro-1,2,4-triazine-6-carboxamide] | 10 to 100 | < 10
Cn1cc(-c2cc(Oc3ccc(NC(=O)c4cn(CC5CCCC5)c(=O)n(-c5ccc(F)cc5)c4=O)cc3F)ccn2)cn1 [No. 6, 1-(cyclopentylmethyl)-N-(3-fluoro-4-((2-(1-methyl-1H-pyrazol-4-yl)pyridin-4-yl)oxy)phenyl)-3-(4-fluorophenyl)-2,4-dioxo-1,2,3,4-tetrahydropyrimidin-5-carboxamide] | 10 to 100 | 10 to 100
C#CCn1cc(C(=O)Nc2ccc(Oc3ccnc(-c4cnn(C)c4)c3)c(F)c2)c(=O)n(-c2ccc(F)cc2)c1=O [No. 8, N-(3-fluoro-4-((2-(1-methyl-1H-pyrazol-4-yl)pyridin-4-yl)oxy)phenyl)-3-(4-fluorophenyl)-2,4-dioxo-1-propargyl-1,2,3,4-tetrahydropyrimidin-5-carboxamide] | 10 to 100 | 10 to 100
CC(C)n1cc(C(=O)Nc2ccc(Oc3ccnc(-c4cnn(C)c4)c3)c(F)c2)c(=O)n([C@H]2CC[C@H](C)CC2)c1=O [No. 22, N-(3-fluoro-4-((2-(1-methyl-1H-pyrazol-4-yl)pyridin-4-yl)oxy)phenyl)-1-isopropyl-3-((1R,4R)-4-methylcyclohexyl)-2,4-dioxo-1,2,3,4-tetrahydropyrimidin-5-carboxamide] | > 100 | 10 to 100
COc1ccc(-n2c(=O)c(C(=O)Nc3ccc(Oc4ccnc(-c5cnn(C)c5)c4)c(F)c3)cn(C(C)C)c2=O)cc1 [No. 16, N-(3-fluoro-4-((2-(1-methyl-1H-pyrazol-4-yl)pyridin-4-yl)oxy)phenyl)-1-isopropyl-3-(4-methoxyphenyl)-2,4-dioxo-1,2,3,4-tetrahydropyrimidin-5-carboxamide] | > 100 | > 100
Cn1cc(-c2cc(Oc3ccc(NC(=O)c4cn(CC5CC5)c(=O)n(-c5ccc(F)cc5)c4=O)cc3F)ccn2)cn1 [No. 5, 1-(cyclopropylmethyl)-N-(3-fluoro-4-((2-(1-methyl-1H-pyrazol-4-yl)pyridin-4-yl)oxy)phenyl)-3-(4-fluorophenyl)-2,4-dioxo-1,2,3,4-tetrahydropyrimidin-5-carboxamide] | < 10 | < 10
CC(C)n1cc(C(=O)Nc2ccc(Oc3ccnc4c3OCCN4)cc2)c(=O)n(-c2ccc(F)cc2)c1=O [No. 48, N-(4-((3,4-dihydro-2H-pyridino[3,2-b][1,4]oxazin-8-yl)oxy)phenyl)-3-(4-fluorophenyl)-1-isopropyl-2,4-dioxo-1,2,3,4-tetrahydropyrimidin-5-carboxamide] | 10 to 100 | < 10
COCCCn1cc(C(=O)Nc2ccc(Oc3ccnc(-c4cnn(C)c4)c3)c(F)c2)c(=O)n(-c2ccc(F)cc2)c1=O [No. 55, N-(3-fluoro-4-((2-(1-methyl-1H-pyrazol-4-yl)pyridin-4-yl)oxy)phenyl)-3-(4-fluorophenyl)-1-(3-methoxypropyl)-2,4-dioxo-1,2,3,4-tetrahydropyrimidin-5-carboxamide] | 10 to 100 | 10 to 100
CC(C)n1cc(C(=O)Nc2ccc(Oc3ccnc(-c4cnn(C)c4)c3)c(F)c2)c(=O)n(-c2ccc(Cl)cc2)c1=O [No. 14, 3-(4-chlorophenyl)-N-(3-fluoro-4-((2-(1-methyl-1H-pyrazol-4-yl)pyridin-4-yl)oxy)phenyl)-1-isopropyl-2,4-dioxo-1,2,3,4-tetrahydropyrimidin-5-carboxamide] | < 10 | < 10

Results, then the compound that gave them:

IC50 [1] [nM] | IC50 [2] [nM] | SMILES
> 100 | 10 to 100 | CC(C)n1cc(C(=O)Nc2ccc(Oc3ccnc4c3CC(=O)N4)c(F)c2)c(=O)n(-c2ccc(F)cc2)c1=O [No. 45, N-(3-fluoro-4-((2-oxo-2,3-dihydro-1H-pyrrolo[2,3-b]pyridin-4-yl)oxyl)phenyl)-3-(4-fluorophenyl)-1-isopropyl-2,4-dioxo-1,2,3,4-tetrahydropyrimidin-5-carboxamide]
< 10 | < 10 | CCn1cc(C(=O)Nc2ccc(Oc3ccnc(-c4cnn(C)c4)c3)c(F)c2)c(=O)n(-c2ccc(F)cc2)c1=O [No. 2, 1-ethyl-N-(3-fluoro-4-((2-(1-methyl-1H-pyrazol-4-yl)pyridin-4-yl)oxy)phenyl)-3-(4-fluorophenyl)-2,4-dioxo-1,2,3,4-tetrahydropyrimidin-5-formamide]
< 10 | < 10 | CC(C)n1cc(C(=O)Nc2ccc(Oc3ccnc(-c4cnn(C)c4)c3)c(F)c2)c(=O)n(-c2ccc(F)c(F)c2)c1=O [No. 19, 3-(3,4-difluorophenyl)-N-(3-fluoro-4-((2-(1-methyl-1H-pyrazol-4-yl)pyridin-4-yl)oxy)phenyl)-1-isopropyl-2,4-dioxo-1,2,3,4-tetrahydropyrimidin-5-carboxamide]
> 100 | 10 to 100 | CC(C)n1cc(C(=O)Nc2ccc(Oc3ccnc(-c4cnn(C)c4)c3)c(F)c2)c(=O)n(-c2cnn(C)c2)c1=O [No. 21, N-(3-fluoro-4-((2-(1-methyl-1H-pyrazol-4-yl)pyridin-4-yl)oxy)phenyl)-1-isopropyl-3-(1-methyl-1H-pyrazol-4-yl)-2,4-dioxo-1,2,3,4-tetrahydropyrimidin-5-carboxamide]
10 to 100 | < 10 | CC(C)n1cc(C(=O)Nc2ccc(Oc3ncnc4[nH]cc(-c5ccccc5)c34)c(F)c2)c(=O)n(-c2ccc(F)cc2)c1=O [No. 44, N-(3-fluoro-4-((5-phenyl-7H-pyrrolo[2,3-d]pyrimidin-4-yl)oxy)phenyl)-3-(4-fluorophenyl)-1-isopropyl-2,4-dioxo-1,2,3,4-tetrahydropyrimidin-5-carboxamide]
> 100 | > 100 | CC(C)n1cc(C(=O)Nc2ccc(Oc3ccnc(-c4cnn(C)c4)c3)c(F)c2)c(=O)n(-c2ccncc2)c1=O [No. 20, N-(3-fluoro-4-((2-(1-methyl-1H-pyrazol-4-yl)pyridin-4-yl)oxy)phenyl)-1-isopropyl-2,4-dioxo-3-(pyridin-4-yl)-1,2,3,4-tetrahydropyrimidin-5-carboxamide]
< 10 | < 10 | CCCn1cc(C(=O)Nc2ccc(Oc3ccnc(-c4cnn(C)c4)c3)c(F)c2)c(=O)n(-c2ccc(F)cc2)c1=O [No. 4, N-(3-fluoro-4-((2-(1-methyl-1H-pyrazol-4-yl)pyridin-4-yl)oxy)phenyl)-3-(4-fluorophenyl)-1-propyl-2,4-dioxo-1,2,3,4-tetrahydropyrimidin-5-carboxamide]
> 100 | > 100 | Cn1cc(-c2cc(Oc3ccc(NC(=O)c4cn(-c5ccc(F)cc5)c(=O)n(-c5ccc(F)cc5)c4=O)cc3F)ccn2)cn1 [No. 12, N-(3-fluoro-4-((2-(1-methyl-1H-pyrazol-4-yl)pyridin-4-yl)oxy)phenyl)-1,3-bis(4-fluorophenyl)-2,4-dioxo-1,2,3,4-tetrahydropyrimidin-5-carboxamide]
< 10 | < 10 | CC(C)n1cc(C(=O)Nc2ccc(Oc3ccnc4c3CCN4)c(F)c2)c(=O)n(-c2ccc(F)cc2)c1=O [No. 51, N-(4-((2,3-dihydro-1H-pyrrolo[2,3-b]pyridin-4-yl)oxy)-3-fluorophenyl)-3-(4-fluorophenyl)-1-isopropyl-2,4-dioxo-1,2,3,4-tetrahydropyrimidin-5-carboxamide]
